The record followed here is patent EP1774974A1, “Use of hyperforin or St. John's Wort in the treatment and prevention of metabolic syndrome” (Roots, Ivar, priority 2005, dated 2007).

Data set [1] has as its system HepG2 cells. In words: Affymetrix HG U95Av2 microarray gene expression analysis. It is filed as cell-based, human. The note with it: 1 µM hyperforin, 24 h. As for the experimental part: (§1) HepG2 cells (human hepatocellular carcinoma, German Collection of Microorganisms and Cell Cultures, DSMZ, Braunschweig, Germany) were grown in Dulbecco's Modified Eagle Medium containing 1 g/l D-glucose and 5% fetal bovine serum with 5% CO2 at 37°C. Cells were seeded in 6-well dishes and grown to confluence. Content of 1 Esbericum™ capsule (total hypericin […], Schaper & Bruemmer, Salzgitter, Germany) was extracted with 1 ml ethanol. Cells were treated with either this extract (final concentration 0.1% (v/v)), or 1 µM hyperforin (Calbiochem, Schwalbach, Germany), or 0.1 % ethanol (controls) for 24 h. Three independent experiments were performed.
(§2) Cells were washed twice with phosphate buffered saline, harvested in lysis buffer (Qiagen, Hilden, Germany) with a rubber-policeman and homogenised by centrifugation through a Qiashredder (Qiagen, Hilden, Germany). Preparation of total RNA was performed using a Qiagen RNeasy Mini Kit according to the manufacturer's instructions. RNA concentration was determined photometrically (Uvicon photometer, Kontron). RNA was either used immediately for cDNA synthesis or stored at -80°C.
Expression analysis was performed with Affymetrix HG U95Av2 microarray (Affymetrix, Santa Clara, CA). Synthesis of biotin-labelled cRNA and hybridisation were carried out following the Affymetrix protocol. Results were exported to Excei for analysis.

Data set [2] relates to HepG2 cells. Put plainly: Real-time RT-PCR gene expression analysis. It is filed as cell-based, human. To be noted: 1 µM hyperforin, 24 h, vs. control, geometric mean of three experiments. As for the experimental part: as §1, §2
5 µg RNA was reverse transcribed in a total volume of 20 µl containing 200 U SuperScript™ II RT and 1x reaction buffer (Invitrogen, Karlsruhe, Germany), 500 ng pd(T)12-18 (Amersham Pharmacia Biotech, Freiburg, Germany) and 125 pmol/µl of each dNTP at 42°C for 1 h. Real-time PCR was performed with QuantiTect™ SYBR® Green PCR Kit (Qiagen, Hilden, Germany) according to the manufacturer's instructions. The reaction was carried out in a LightCycler (Roche, Mannheim, Germany), version 5.32, and analysed using the Second Derivative Maximum method.

[3] abbreviates: vs. control, geometric mean of three experiments.

For the substance Hyperforin, in the data set on HepG2 cells [1], the “differentially regulated sequences that were upregulated” value came to 120 sequences and the “sequences identified as differentially regulated (p<0.05)” value is given as 201 sequences. Further, in the data set with HepG2 cells [1] (setting [3]), the “Fold change of ALDOA transcript, Array” value came to 1.41; the “Fold change of ENO2 transcript, Array” value worked out at 2.75; the “Fold change of FDPS transcript, Array” value is reported as 0.53; the “Fold change of IGFBP3 transcript, Array” value was 8.79. In the data set on HepG2 cells [1] (setting [3]), the “Fold change of LDHA transcript, Array” value was found to be 1.36; the “Fold change of LDHB transcript, Array” value is given as 1.42; the “Fold change of MVD transcript, Array” value came out at 0.26; the “Fold change of PCK2 transcript, Array” value was determined as 0.43. For the same substance, in the data set with HepG2 cells [1] (setting [3]), the “Fold change of PFKFB3 transcript, Array” value is given as 1.83; the “Fold change of PGK1 transcript, Array” value was found to be 1.50; the “Fold change of PKM2 transcript, Array” value was 1.40; the “Fold change of SLC2A1 transcript, Array” value came to 1.74. For the same substance, in the data set on HepG2 cells [1] (setting [3]), the “Fold change of SLC2A3 transcript, Array” value was 3.57; the “Fold change of SLC25A8 / UCP2 transcript, Array” value was found to be 0.54; the “Fold change of TM7SF2 transcript, Array” value is given as 0.52. In the data set on HepG2 cells [2], the “Fold change of ALDOA transcript, RT-PCR” value stood at 1.42; the “Fold change of FDPS transcript, RT-PCR” value is 0.49; the “Fold change of IGFBP3 transcript, RT-PCR” value stood at 8.29; the “Fold change of MVD transcript, RT-PCR” value stood at 0.56. In the data set on HepG2 cells [2], the “Fold change of PCK2 transcript, RT-PCR” value is on record as 0.49; the “Fold change of SLC2A1 transcript, RT-PCR” value is recorded as 1.90; the “Fold change of SLC2A3 transcript, RT-PCR” value is reported as 2.84.
